Experiment [1] is filed under the species Homo sapiens. In words: Inhibition of human P70S6K catalytic domain expressed in baculovirus assessed as substrate phosphorylation using fluorescence-labelled peptides as substrate at 2 uM after 90 mins by microfluidic peptide phosphorylation assay.
Experiment [2] concerns the target Protein kinase C beta type (Homo sapiens) (UniProt P05771). In words: Inhibition of human truncated PKC beta1 expressed in baculovirus assessed as substrate phosphorylation using fluorescence-labelled peptides as substrate at 0.1 uM after 90 mins by microfluidic peptide phosphorylation assay.
The target of experiment [3] is T1, Mitogen-activated protein kinase 12 (Homo sapiens) (UniProt P53778).
T1 sequence (whole entry): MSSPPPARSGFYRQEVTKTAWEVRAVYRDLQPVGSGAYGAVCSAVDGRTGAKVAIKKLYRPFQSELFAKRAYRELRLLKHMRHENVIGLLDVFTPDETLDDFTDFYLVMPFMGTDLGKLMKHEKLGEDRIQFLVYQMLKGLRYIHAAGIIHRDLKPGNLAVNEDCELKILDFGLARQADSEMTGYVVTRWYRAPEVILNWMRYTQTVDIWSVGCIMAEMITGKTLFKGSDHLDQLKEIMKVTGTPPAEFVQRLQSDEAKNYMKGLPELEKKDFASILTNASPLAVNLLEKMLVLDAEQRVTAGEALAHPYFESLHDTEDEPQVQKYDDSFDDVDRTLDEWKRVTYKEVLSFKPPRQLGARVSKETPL
Kind of experiment: Inhibition of human full length p38 gamma expressed in Escherichia coli cell assessed as substrate phosphorylation using fluorescence-labelled peptides as substrate at 0.2 uM after 90 mins by microfluidic peptide phosphorylation assay.

For experiment [4], the target named is Ribosomal protein S6 kinase alpha-1 (Homo sapiens) (UniProt Q15418). The following applies: 9 uM.
Ribosomal protein S6 kinase alpha-1 (Homo sapiens), sequence (Q15418 whole entry): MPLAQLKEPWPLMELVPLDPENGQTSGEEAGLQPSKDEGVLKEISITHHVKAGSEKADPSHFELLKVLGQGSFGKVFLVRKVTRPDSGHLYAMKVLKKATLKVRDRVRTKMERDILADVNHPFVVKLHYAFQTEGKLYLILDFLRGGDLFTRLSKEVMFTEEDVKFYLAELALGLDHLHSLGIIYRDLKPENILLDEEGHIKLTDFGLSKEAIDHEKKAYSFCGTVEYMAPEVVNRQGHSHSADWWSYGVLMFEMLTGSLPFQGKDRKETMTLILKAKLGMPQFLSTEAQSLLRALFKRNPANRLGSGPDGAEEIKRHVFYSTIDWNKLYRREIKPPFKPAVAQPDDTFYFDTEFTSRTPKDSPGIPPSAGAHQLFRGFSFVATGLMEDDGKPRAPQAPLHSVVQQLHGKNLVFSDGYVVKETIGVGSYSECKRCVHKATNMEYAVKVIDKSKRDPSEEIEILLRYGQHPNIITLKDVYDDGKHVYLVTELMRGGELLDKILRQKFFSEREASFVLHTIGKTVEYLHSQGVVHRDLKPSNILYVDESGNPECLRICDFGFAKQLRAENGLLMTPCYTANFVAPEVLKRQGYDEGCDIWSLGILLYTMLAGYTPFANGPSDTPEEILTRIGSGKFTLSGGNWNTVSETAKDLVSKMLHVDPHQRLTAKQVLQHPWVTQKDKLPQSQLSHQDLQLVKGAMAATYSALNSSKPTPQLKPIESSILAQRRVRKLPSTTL
Description: Inhibition of human full length RSK1 expressed in baculovirus assessed as substrate phosphorylation using fluorescence-labelled peptides as substrate at 9 uM after 90 mins by microfluidic peptide phosphorylation assay
In experiment [5] the target is T2, Aurora kinase A (Homo sapiens) (UniProt O14965).
T2 sequence (whole entry): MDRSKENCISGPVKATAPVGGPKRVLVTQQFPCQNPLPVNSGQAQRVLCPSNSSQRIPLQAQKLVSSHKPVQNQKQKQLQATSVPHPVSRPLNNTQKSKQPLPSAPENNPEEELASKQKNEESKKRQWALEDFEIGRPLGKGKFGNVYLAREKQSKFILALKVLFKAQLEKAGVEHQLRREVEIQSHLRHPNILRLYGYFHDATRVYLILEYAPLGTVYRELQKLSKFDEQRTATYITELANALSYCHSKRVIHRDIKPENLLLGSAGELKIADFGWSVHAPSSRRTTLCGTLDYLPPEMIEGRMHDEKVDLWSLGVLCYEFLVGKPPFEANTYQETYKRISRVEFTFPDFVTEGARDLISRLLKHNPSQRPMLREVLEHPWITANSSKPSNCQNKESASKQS
Kind of experiment: Inhibition of human full length AurA expressed in baculovirus assessed as substrate phosphorylation using fluorescence-labelled peptides as substrate at 95 uM after 90 mins by microfluidic peptide phosphorylation assay.

The target of experiment [6] is Ribosomal protein S6 kinase alpha-5 (Homo sapiens) (UniProt O75582). In words: Inhibition of human full length MSK1 expressed in baculovirus assessed as substrate phosphorylation using fluorescence-labelled peptides as substrate at 8 uM after 90 mins by microfluidic peptide phosphorylation assay.
Ribosomal protein S6 kinase alpha-5 (Homo sapiens), sequence (O75582 whole entry, looked up, the tested form may be a part): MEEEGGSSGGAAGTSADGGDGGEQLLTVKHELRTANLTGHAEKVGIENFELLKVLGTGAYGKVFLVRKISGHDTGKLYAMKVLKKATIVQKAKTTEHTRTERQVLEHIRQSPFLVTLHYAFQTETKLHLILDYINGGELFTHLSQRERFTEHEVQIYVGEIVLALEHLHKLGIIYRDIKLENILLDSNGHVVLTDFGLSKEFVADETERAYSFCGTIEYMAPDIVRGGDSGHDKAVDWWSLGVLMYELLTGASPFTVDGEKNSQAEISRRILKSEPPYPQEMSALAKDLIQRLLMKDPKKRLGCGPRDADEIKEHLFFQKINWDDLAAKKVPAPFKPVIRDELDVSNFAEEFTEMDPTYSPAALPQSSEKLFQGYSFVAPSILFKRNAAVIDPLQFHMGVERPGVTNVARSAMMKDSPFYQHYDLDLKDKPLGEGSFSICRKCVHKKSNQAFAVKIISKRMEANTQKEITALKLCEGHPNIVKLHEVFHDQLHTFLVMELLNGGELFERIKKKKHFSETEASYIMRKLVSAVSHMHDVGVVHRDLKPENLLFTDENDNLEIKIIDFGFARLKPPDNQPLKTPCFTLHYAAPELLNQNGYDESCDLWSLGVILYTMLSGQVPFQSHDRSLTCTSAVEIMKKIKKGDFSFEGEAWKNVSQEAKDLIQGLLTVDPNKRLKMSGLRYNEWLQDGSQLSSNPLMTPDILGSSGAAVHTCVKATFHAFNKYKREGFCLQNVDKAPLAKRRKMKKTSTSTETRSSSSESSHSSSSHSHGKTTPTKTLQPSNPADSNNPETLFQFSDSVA
Experiment [7] addresses Protein kinase C beta type (Homo sapiens) (UniProt P05771). Kind of experiment: Inhibition of human truncated PKC beta1 expressed in baculovirus assessed as substrate phosphorylation using fluorescence-labelled peptides as substrate at 8 uM after 90 mins by microfluidic peptide phosphorylation assay.
Experiment [8] deals with T3, Serine/threonine-protein kinase Sgk3 (Homo sapiens) (UniProt Q96BR1).
T3 sequence (whole entry): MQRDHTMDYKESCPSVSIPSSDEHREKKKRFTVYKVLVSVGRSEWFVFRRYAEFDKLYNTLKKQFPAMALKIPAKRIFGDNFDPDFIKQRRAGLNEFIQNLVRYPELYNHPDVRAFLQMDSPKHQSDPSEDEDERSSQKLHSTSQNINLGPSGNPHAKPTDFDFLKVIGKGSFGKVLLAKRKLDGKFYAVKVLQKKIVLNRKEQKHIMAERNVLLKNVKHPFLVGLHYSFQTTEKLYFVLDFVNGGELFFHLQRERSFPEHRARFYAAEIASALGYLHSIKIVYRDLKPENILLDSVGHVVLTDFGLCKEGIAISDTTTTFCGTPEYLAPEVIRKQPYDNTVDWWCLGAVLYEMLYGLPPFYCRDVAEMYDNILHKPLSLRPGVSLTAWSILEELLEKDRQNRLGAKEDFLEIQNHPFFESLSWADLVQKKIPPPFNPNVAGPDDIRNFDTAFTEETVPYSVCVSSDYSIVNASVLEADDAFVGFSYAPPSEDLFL
Kind of experiment: Inhibition of human full length SGK3 expressed in baculovirus assessed as substrate phosphorylation using fluorescence-labelled peptides as substrate at 8 uM after 90 mins by microfluidic peptide phosphorylation assay.

Experiment [9] has as its target Platelet-derived growth factor receptor alpha (Homo sapiens) (UniProt P16234). Kind of experiment: Inhibition of human PDGFR alpha catalytic domain expressed in baculovirus assessed as substrate phosphorylation using fluorescence-labelled peptides as substrate at 70 uM after 90 mins by microfluidic peptide phosphorylation assay.
Experiment [10] concerns the target Casein kinase I isoform alpha (Homo sapiens) (UniProt P48729). In words: Inhibition of human full length CSNK1A1 expressed in baculovirus assessed as substrate phosphorylation using fluorescence-labelled peptides as substrate at 420 uM after 90 mins by microfluidic peptide phosphorylation assay.
In experiment [11] the target is T4, cGMP-dependent protein kinase 1 (Homo sapiens) (UniProt Q13976).
T4 sequence (whole entry): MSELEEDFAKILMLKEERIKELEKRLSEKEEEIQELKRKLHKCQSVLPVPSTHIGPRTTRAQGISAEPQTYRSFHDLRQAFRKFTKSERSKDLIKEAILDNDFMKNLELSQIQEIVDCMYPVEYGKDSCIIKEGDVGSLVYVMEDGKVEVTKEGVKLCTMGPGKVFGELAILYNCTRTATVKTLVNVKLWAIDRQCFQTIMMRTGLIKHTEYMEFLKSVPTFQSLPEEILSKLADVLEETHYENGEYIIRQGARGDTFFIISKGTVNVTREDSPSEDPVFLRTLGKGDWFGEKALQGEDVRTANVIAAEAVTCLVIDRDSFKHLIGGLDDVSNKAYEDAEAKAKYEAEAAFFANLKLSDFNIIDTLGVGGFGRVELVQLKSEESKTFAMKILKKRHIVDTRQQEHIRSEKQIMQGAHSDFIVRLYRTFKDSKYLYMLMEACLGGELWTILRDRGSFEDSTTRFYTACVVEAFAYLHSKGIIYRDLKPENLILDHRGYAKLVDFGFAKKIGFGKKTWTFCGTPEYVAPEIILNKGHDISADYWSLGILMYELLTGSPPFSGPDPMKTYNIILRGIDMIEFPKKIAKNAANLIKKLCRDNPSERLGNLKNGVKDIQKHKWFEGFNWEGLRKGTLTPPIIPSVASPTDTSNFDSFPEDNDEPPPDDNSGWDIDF
In words: Inhibition of human full length PKG-1a expressed in baculovirus assessed as substrate phosphorylation using fluorescence-labelled peptides as substrate at 420 uM after 90 mins by microfluidic peptide phosphorylation assay.

The target of experiment [12] is Protein kinase C gamma type (Homo sapiens) (UniProt P05129). In words: Inhibition of human truncated PKC gamma expressed in baculovirus assessed as substrate phosphorylation using fluorescence-labelled peptides as substrate at 1000 uM after 90 mins by microfluidic peptide phosphorylation assay.

In ChEMBL document CHEMBL3132769, “Fragment growing to retain or alter the selectivity of anchored kinase hinge-binding fragments” (Medchemcomm, 2014) one finds inhibition data, which are given here for nine compounds.

Protein kinase C beta type (Homo sapiens), sequence (P05771 2-671 limits assumed): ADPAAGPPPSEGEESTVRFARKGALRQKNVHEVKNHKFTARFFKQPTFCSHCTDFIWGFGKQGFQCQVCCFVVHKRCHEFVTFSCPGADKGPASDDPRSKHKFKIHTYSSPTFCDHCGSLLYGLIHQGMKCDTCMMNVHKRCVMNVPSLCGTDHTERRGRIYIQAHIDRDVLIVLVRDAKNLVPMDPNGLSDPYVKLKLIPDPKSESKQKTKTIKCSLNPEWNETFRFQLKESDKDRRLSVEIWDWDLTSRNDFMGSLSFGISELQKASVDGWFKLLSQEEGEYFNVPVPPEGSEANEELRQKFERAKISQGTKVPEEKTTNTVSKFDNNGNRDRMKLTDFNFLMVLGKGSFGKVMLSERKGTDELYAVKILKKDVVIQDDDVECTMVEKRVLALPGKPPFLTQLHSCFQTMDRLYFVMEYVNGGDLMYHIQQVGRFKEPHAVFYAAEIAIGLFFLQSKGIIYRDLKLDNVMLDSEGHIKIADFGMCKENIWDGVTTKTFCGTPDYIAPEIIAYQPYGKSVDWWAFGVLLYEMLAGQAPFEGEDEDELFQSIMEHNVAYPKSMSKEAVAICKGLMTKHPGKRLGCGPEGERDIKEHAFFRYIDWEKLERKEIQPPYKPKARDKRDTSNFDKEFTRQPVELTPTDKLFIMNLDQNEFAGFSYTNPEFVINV
Platelet-derived growth factor receptor alpha (Homo sapiens), sequence (P16234 whole entry, the tested form may be a part, canonical isoform): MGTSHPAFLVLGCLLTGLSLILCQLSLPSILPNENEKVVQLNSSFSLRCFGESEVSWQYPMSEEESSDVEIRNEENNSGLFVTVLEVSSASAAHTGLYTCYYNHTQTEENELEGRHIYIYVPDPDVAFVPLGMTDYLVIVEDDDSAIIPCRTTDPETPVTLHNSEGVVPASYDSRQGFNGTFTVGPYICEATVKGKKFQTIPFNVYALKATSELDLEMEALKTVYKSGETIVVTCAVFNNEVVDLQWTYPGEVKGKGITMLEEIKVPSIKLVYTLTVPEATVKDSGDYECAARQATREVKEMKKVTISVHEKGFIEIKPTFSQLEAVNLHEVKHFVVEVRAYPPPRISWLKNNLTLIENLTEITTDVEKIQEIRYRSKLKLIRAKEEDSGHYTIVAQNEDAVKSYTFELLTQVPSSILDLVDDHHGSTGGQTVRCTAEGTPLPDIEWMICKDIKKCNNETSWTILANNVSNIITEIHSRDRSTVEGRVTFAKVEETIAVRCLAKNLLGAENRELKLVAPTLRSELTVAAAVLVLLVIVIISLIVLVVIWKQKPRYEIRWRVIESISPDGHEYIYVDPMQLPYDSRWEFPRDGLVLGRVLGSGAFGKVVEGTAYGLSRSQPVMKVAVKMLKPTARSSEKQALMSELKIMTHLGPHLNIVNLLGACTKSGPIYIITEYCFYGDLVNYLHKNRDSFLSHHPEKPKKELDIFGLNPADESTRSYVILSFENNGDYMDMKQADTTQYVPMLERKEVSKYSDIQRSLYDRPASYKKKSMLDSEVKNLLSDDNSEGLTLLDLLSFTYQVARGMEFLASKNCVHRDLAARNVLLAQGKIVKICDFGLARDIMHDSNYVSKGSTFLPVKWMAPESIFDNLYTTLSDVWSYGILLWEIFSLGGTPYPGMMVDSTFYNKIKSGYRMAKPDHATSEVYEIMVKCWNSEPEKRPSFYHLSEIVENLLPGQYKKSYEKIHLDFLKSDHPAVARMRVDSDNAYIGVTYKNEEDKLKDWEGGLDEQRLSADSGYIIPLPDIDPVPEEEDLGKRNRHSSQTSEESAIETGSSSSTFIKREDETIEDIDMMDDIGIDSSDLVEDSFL
Casein kinase I isoform alpha (Homo sapiens), sequence (P48729 2-337 limits assumed): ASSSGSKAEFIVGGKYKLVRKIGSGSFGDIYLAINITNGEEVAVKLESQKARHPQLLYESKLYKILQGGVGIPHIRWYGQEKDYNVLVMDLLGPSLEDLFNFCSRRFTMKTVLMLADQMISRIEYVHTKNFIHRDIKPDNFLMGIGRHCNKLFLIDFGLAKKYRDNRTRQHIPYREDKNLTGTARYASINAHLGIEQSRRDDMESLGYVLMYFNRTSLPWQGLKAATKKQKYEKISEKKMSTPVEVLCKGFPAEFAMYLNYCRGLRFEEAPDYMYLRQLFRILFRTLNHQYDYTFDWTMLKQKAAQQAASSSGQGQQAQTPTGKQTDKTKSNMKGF

Regarding `NC1CCN(c2ncnc3[nH]ccc23)CC1`, the inhibition – broadly, the percentage by which the read-out fell short of the control – in experiment [1] is 3.5%. Consider `C[C@H](CN(C)C)Oc1nc(Nc2cc3cccc(Cl)c3cn2)cnc1C#N`, for which, in experiment [2], the inhibition is 3%. Consider `Clc1ccc(C2(c3ccc(-c4ncnc5[nH]cnc45)cc3)CCNCC2)cc1`, for which the inhibition in experiment [3] was 5%. The compound `NCC1CN(c2ncnc3[nH]c4cnccc4c23)CCO1` (configuration not stated) showed an inhibition in experiment [4] of 91%. Regarding `NCCc1ccc(-c2ncnc3[nH]cnc23)cc1`, the inhibition in experiment [5] stood at 85%. Consider `NCC1CCN(c2ncnc3[nH]ccc23)CC1`, for which the inhibition in experiment [6] turned out to be 68%; in [7], 50.5%; in experiment [8], 83%.

In the case of `CNCc1ccc(-c2ncnc3[nH]cnc23)cc1`, the inhibition in experiment [9] was determined as 16.5%. As to `c1nc(N2CCOCC2)c2nc[nH]c2n1`, the figures for the inhibition in [10] and in experiment [11] were 60.5% and 98%, respectively.

As for `c1cnc2[nH]ccc2c1`, the inhibition in experiment [12] is 57%.
